Experimental data published in patent publication US8980224B2, “Method of cardiac imaging” (GE Healthcare AS, priority 2004, dated 2015).

How the values were obtained:
[1] = 13C polarisation obtained by the DNP method, assessed with 13C-NMR; format: physicochemical; conditions: 1.2 K, 3.35 T
Description: A 20 mM solution was prepared by dissolving 5.0 mg of the radical of Example 1 in ^13CI-pyruvic acid (164 μl). The sample was mixed to homogeneity and an aliquot of the solution (41 mg) was placed in a sample cup and inserted in the DNP polariser.
The sample was polarised under DNP conditions at 1.2 K in a 3.35 T magnetic field under irradiation with microwave (93.950 GHz). After 2 hours the polarisation was stopped and the sample was dissolved using a dissolution device according to WO-A-02/37132 in an aqueous solution of sodium hydroxide and tris(hydroxymethyl)aminomethane (TRIS) to provide a neutral solution of hyperpolarised sodium ^13C1-pyruvate. The dissolved sample was rapidly analysed with ^13C-NMR to assess the polarisation and a 19.0% ^13C polarisation was obtained.
A 15 mM solution was prepared by dissolving the radical of Example 1 (209.1 mg) in a mixture of ^13C1-pyruvic acid (553 mg) and unlabelled pyruvic acid (10.505 g). The sample was mixed to homogeneity and an aliquot of the solution (2.015 g) was placed in a sample cup and inserted in the DNP polariser.
The sample was polarised under DNP conditions at 1.2 K in a 3.35 T magnetic field under irradiation with microwave (93.950 GHz). […] The filtered solution was rapidly analysed with ^13C-NMR to assess the polarisation, 16.5% ^13C polarisation was obtained. The residual radical concentration was subsequently analysed with a UV spectrophotometer meter at 469 nm and was determined to be below the detection limit of 0.1 μM.
A 20 mM solution was prepared by dissolving Tris(8-carboxy-2,2,6,6-tetra(hydroxyethoxy)methyl-benzo[1,2-d:4,5-d′]-bis-(1,3)-dithiole-4-yl)methyl sodium salt in ^13C1-pyruvic acid (83.1 mg). […] The DNP enhancement was calculated from a measurement of the thermal equilibrium ^13C-NMR signal and the enhanced NMR signal. […]

[2] = T1 relaxation of 13C-pyruvate in human full blood; format: physicochemical; conditions: human full blood at 37° C.
Excerpt: The amount of alanine, bicarbonate and lactate is dependent on the metabolic status of the myocardial tissue under investigation.

myocardial tissue = assay: Cardiac 13C-MR imaging in the pig before and after occlusion of the circumflexa; format: in vivo; conditions: 0.22 mmol/kg i.v., imaging 30 s after start of injection
Description: The pig (25 kg) was anaesthetised using a cocktail containing isotonic NaCl (26 vol %), Ketalar (50 mg/ml) (Pfizer AB) (42 vol %), Norcuron (10 mg+5 ml sterile water) (Organon) (21 vol %) and Midazolam (5 mg/ml) (Pharma Hameln) (11% vol) administered using an infusion pump at a rate of 0.6 ml/min.
After the first injection with ^13C-pyruvate the pig was removed from the MR scanner. Under X-ray guidance, a balloon catheter was inserted into the arteria coronaria sinistra and the circumflexa was blocked for a 15 minute period. During the whole operation ECG and blood pressure were measured. 90 Minutes after the end of the ischemic period, the pig was imaged again and ^13C-images were acquired from (about) the same location as were the control measurement was carried out.
The pig was positioned in a pig MR coil (Rapid Biomedical, Germany) and imaged using a standard clinical cardiac proton MR imaging sequence library to get anatomical information and to get the short axis view orientation of the myocardium (see proton reference image in the figures to see an example of short axis view).
Based on the proton frequency found by the MR system the MR frequency for ^13C1-alanine was calculated according to the following equation: Frequency ^13C1-alanine=0.25144×[(system frequency proton×1.00021)−0.000397708]
The frequency calculated positioned the MR signal arising from ^13C1-alanine on resonance with ^13C1-lactate on the left and ^13C1-pyruvate and ^13C1-bicarbonate resonating on the right of ^13C1-alanine. An unlocalised MR spectroscopy sequence was run to ensure that the ^13C-MR coil and the system MR frequency had been set up correctly. The ^13C-image location was positioned to cover the myocardium (short axis view) (slice thickness 20 mm, in plane pixel size 7.5×7.5 mm^2). In the reconstruction phase, the image data was zero-filled to result in 3.75×3.75×20 mm^3 resolution. 16 ml of ^13C1-pyruvate (327 mM) was injected (0.22 mmol/kg) during a period of 12 s (1.3 ml/s) i.v. into the front leg and 30 s after the start of the injection (i.e. 18 s after finishing the injection), the chemical shift ^13C-MR sequence was started.
In the reconstruction phase, the matrix was zero-filled to 32×32, a mathematical operation that helps to improve the spatial resolution. The dataset was analysed on the MRI scanner with software provided by the manufacturer. The results are metabolic images for ^13C-pyruvate, ^13C-alanine, ^13C-lactate and ^13C-bicarbonate.

[3] = 90 minutes after 15 minute occlusion of the circumflexa
[4] = before vs 90 minutes after 15 minute occlusion

Row | Compound | 13C polarisation ([1]; Example 4: 20 mM tris(8-carboxy-2,2,6,6-tetra(hydroxyethoxy)methyl-benzo-bis-dithiole-4-yl)methyl sodium salt, calculated from thermal equilibrium and enhanced NMR signal) [%] | T1 relaxation [2] | 13C polarisation ([1]; Example 2: 20 mM radical of Example 1 in 13C1-pyruvic acid, 93.950 GHz, 2 hours, dissolved in NaOH/TRIS, liquid 13C-NMR) [%] | 13C polarisation ([1]; Example 3: 15 mM radical of Example 1, 4 hours, dissolved in NaOH/TRIS, 0.5 M pyruvate, radical removed on C18 column, filtered solution) [%] | 13C-bicarbonate signal in myocardial tissue at risk (compared to the control) (myocardial tissue; [3]) | 13C-lactate signal in myocardial tissue at risk (myocardial tissue; [3]) | 13C-alanine image before and after the ischemic period (myocardial tissue; [4]) | 13C-pyruvate image before and after the ischemic period (myocardial tissue; [4])
1 | CC(=O)[13C](=O)O [^13C1-pyruvic acid] | 16 | – | – | – | – | – | – | –
2 | CC(=O)C(=O)O [^13C-pyruvate, sodium ^13C1-pyruvate] | – | about 42 s | 19.0 | 16.5 | strongly reduced | positive contrast | No difference | No difference
